Source: patent publication US10118947B2, “Modulation of structured polypeptide specificity” (BICYCLE THERAPEUTICS LIMITED, priority 2013, dated 2018)
Read-outs that look alike come from different tables or passages of the source. Numbered stars: 1 amine (or outer) side, 2 acyl side, 3 side chain; on linkers, the order of the positions; unused ones are H or OH. Bridge positions count the residues as written; N and C are the ends. Square brackets hold non-standard residues; d marks the D form. Peptide text beside a SMILES is read from it. Phe(4-guanidino) = N=C(N)Nc1ccc(C[C@H](N)C(=O)O)cc1; TBMB = c1c(C[*:1])cc(C[*:3])cc1C[*:2]; NMeR = CN[C@@H](CCCNC(=N)N)C(=O)O; hArg = N=C(N)NCCCC[C@H](N)C(=O)O; Aze = O=C(O)[C@@H]1CCN1

Assays:
[1] = Plasma stability profiling Method #1 (MALDI-TOF, 35% plasma), rat plasma; type: in vitro ADME; conditions: comparative stabilities estimated according to method #1
Summary of the method: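 Qualitative test: 200 µM peptide incubated at 37 °C in 35% rat or human citrated plasma supplemented with PBS, sampled at 0, 3, 24 h then daily up to 10 days. Parent mass tracked by MALDI-TOF; value is time until parent peptide no longer detectable.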

[2] = target: T1, rat plasma Kallikrein (Rattus norvegicus, UniProt P14272); conditions: Table 1; read-out: Ki (nM) (rat kallikrein); cited from earlier work
T1 construct: polyhistidine tag (N, cleaved yes); proTEV cleavage site (pro-peptide linker) (N, cleaved yes); made in house; host or cells: HEK-293 (suspension-adapted)
T1 sequence (P14272 391-638 limits assumed): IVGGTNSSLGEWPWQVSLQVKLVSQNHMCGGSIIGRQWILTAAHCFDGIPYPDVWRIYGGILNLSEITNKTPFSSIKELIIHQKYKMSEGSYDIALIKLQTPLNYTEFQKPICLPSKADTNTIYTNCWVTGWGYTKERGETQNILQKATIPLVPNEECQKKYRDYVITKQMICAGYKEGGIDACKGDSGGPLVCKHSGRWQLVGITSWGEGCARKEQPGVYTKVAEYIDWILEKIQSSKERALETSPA

[3] = Table 1; Method #1; cited from earlier work
[4] = target: T2, human plasma Kallikrein (Homo sapiens, UniProt P03952); experiment: Phage binding assay of individual clones, homogeneous plate-based binding to biotinylated human plasma Kallikrein; conditions: for BINDING ASSAY SIGNAL: Table 19, fixed WPAR motif library, selection output clones
T2 construct: purchased Stratech, UK
T2 sequence (P03952 20-638): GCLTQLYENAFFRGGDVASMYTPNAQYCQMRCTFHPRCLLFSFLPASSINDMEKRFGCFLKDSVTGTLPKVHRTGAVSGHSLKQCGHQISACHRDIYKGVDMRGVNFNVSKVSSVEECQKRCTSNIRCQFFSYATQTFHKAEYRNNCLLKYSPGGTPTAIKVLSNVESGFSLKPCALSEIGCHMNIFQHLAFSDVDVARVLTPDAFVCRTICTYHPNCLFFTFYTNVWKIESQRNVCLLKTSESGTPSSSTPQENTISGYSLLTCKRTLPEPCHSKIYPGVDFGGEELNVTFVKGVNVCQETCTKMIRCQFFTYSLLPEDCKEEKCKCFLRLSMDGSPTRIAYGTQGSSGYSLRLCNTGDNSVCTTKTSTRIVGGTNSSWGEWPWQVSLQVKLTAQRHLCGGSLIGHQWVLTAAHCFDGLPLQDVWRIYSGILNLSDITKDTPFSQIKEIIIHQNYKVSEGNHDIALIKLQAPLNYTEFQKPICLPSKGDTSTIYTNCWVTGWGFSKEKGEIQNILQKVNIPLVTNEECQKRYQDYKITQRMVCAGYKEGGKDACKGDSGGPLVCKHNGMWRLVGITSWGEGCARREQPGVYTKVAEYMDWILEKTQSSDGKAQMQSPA
Description: Library transformant colonies were picked at random and grown as individual cultures in 2TY broth containing selective antibiotic. The picked colonies were DNA-sequenced using a QIAgen PyroMark Q96 DNA sequencer to reveal the amino-acid substitution present in each clone. Where isolated, a clone of each unique substitution was assayed for human plasma Kallikrein binding as follows. The phage-containing supernatant was harvested from the culture and phage were cyclised with tris bromomethyl benzene(TBMB) based on the methods of Heinis et al (Nature Chemical Biology vol. 5 pp 502-507 (2009)). The purified phage from this process were assayed for binding to biotinylated human plasma Kallikrein using a homogeneous plate-based binding assay; assay read-out measured on a BMG Labtech Pherastar FS plate reader. The quantitative binding data from triplicate assay samples was averaged (mean) and expressed as signal:background (where background was a sample assayed with no target material). The signal:background was expressed as a % of the parallel parent sample. Error bars denote standard deviation of the mean. Assays shown are representative of at least 2 independent experiments. The assay data was correlated with the peptide sequences. Substitutions marked in grey were not tested (a clone was not isolated from the random library sampling). A sample of a non-binding (arbitrary) bicycle was assayed in parallel to illustrate the assay baseline.
Library transformant colonies, or selection output colonies, were picked and grown as individual cultures in 2TY broth containing selective antibiotic. The picked colonies were DNA-sequenced using a QIAgen PyroMark Q96 DNA sequencer to reveal the amino-acid substitution present in each clone, and were assayed for human plasma Kallikrein binding as follows. The phage-containing supernatant was harvested from the culture and phage were cyclised with tris bromomethyl benzene (TBMB) based on the methods of Heinis et al (Nature Chemical Biology vol. 5 pp 502-507 (2009)). The purified phage from this process were assayed for binding to biotinylated human plasma Kallikrein using a homogeneous plate-based binding assay; assay read-out measured on a BMG Labtech Pherastar FS plate reader. The quantitative binding data from duplicate assay samples was averaged (mean) and expressed as signal:background. Assay data shown is representative of at least 2 independent experiments. The assay data was correlated with the peptide sequences.

[5] = Quantitative plasma stability Method #3 (LC-MS, 95% plasma), rat plasma; type: in vitro ADME
Description: (§1) To obtain plasma stability quantitatively, peptide stock solutions (1 mM in DMSO) were shipped to Biofocus, UK, who performed the analysis. Peptides were diluted to 100 uM with water, and diluted 1:20 in plasma (5 uM final concentration, with the plasma at 95%), sampled as appropriate, precipitated as above, and quantified using a Waters Xevo TQ-MS.

[6] = Quantitative plasma stability Method #3 (LC-MS, 95% plasma), human plasma; type: in vitro ADME; conditions: human plasma (95%), Table 2, ex vivo human plasma, read-out: Human Plasma Stability (t½ in hrs) (converted)
Description: as §1

[7] = Table 1; Method #3; cited from earlier work
[8] = target: T2, human plasma Kallikrein; experiment: Functional enzyme inhibition assay with fluorogenic substrate Z-PheArg-AMC, human plasma Kallikrein; type: biochemical; conditions: Table 2; read-out: Ki (nM) human Kai
Summary of the method: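 Human plasma kallikrein at 26.5 pM was preincubated 15 minutes with test peptide in Tris/NaCl/MgCl2/CaCl2/BSA buffer pH7.4 at 25° C, then Z-PheArg-AMC added to 100 μM final in 4% DMSO.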

[9] = target: T2, human plasma Kallikrein; experiment: Phage selections against human plasma Kallikrein (abundance in selection output); type: binding; conditions: Table 17; relative abundance in the total selection outputs
Description: Glycerol stocks of phage libraries were diluted to OD600=0.1 in 500 ml 2YT/chloramphenicol (30 μg/ml) cultures and phage were produced at 30° C. over night (15-16 hrs). Phage were purified and chemically modified as described in Heinis, et al., Nat Chem Biol 2009, 5 (7), 502-7 Biotinylated hPK (3 μg) (IHPKA, from human plasma, Innovative Research, Novi, Mich., USA) was incubated with 50 μl pre-washed magnetic streptavidin beads (Dynal, M-280 from Invitrogen, Paisley, UK) for 10 minutes at RT. Beads were washed 3 times prior to blocking with 0.5 ml washing buffer (10 mM Tris-Cl, pH 7.4, 150 mM NaCl, 10 mM MgCl2, 1 mM CaCl2) containing 1% BSA and 0.1% Tween 20 for 30 minutes at RT with rotation. […] Blocked beads were then mixed with the blocked chemically modified phage and incubated for 30 minutes on a rotating wheel at
RT. Beads were washed 8 times with washing buffer containing 0.1% Tween 20 and twice with washing buffer before incubation with 100 μl of 50 mM glycine, pH 2.2 for 5 minutes. Eluted phage were transferred to 50 μl of 1 M Tris-Cl, pH 8 for neutralization, incubated with 30 ml TG1 cells at OD600=0.4 for 90 minutes at 37° C. and the cells were plated on large 2YT/chloramphenicol plates. One or two additional rounds of panning were performed using the same procedures. In the second round of selection, neutravidin-coated magnetic beads were used to prevent the enrichment of streptavidin-specific peptides. The neutravidin beads were prepared by reacting 0.8 mg neutravidin (Pierce, Rockford, Ill., USA) with 0.5 ml tosyl-activated magnetic beads (Dynal, M-280 from Invitrogen, Paisley, UK) according to the supplier's instructions.
The WPAR (SEQ ID No. 19) motif identified from Example 1 was analysed in the context of the 06-34-03 peptide, in order to identify alternatives or improvements to the WPAR motif. A library was constructed where positions 1, 6, 7, 8, 9 &10 of 06-34-03 were fixed and positions 2, 3, 4 & 5 were randomised (see ‘Randomisation of peptide domains—Library construction’ in Methods above). Selections against human plasma Kallikrein were performed at a variety of stringencies (see Phage selections' in Methods above). All output sequences were identified and analysed for target binding (see ‘Randomisation of peptide domains—Assay of binding of individual clones’ in Methods above). Table 17 lists each unique sequence, its relative abundance in the selection output (frequency), and a rank number according to target binding strength.

[10] = rat plasma (95%), Table 2, ex vivo rat plasma, Method #3, read-out: Rat Plasma Stability (t½ in hrs) (converted)

| BINDING ASSAY SIGNAL [4] | Compound | Ki [2] [nM] | Observable in rat plasma, for days [3] [days] | Observable in rat plasma, for days ([1]; Table 23) [days] | half-life at 5 uM [5, 10] [h] | half-life at 5 uM [6] [h] | t1/2 (hrs) in rat plasma [7] [h] | also measured |
| --- | --- | --- | --- | --- | --- | --- | --- | --- |
| 84 | CAWPARCTHDDLC | – | – | – | – | – | – | – |
| 91 | CQWPARCTHTDLC | – | – | – | – | – | – | – |
| 83 | CSWPARCTHTDLC | – | – | – | – | – | – | – |

More lines, now with the values behind:

| Compound | BINDING ASSAY SIGNAL [4] | Ki [2] [nM] | Observable in rat plasma, for days [3] [days] | Observable in rat plasma, for days ([1]; Table 23) [days] | half-life at 5 uM [5, 10] [h] | half-life at 5 uM [6] [h] | t1/2 (hrs) in rat plasma [7] [h] | also measured |
| --- | --- | --- | --- | --- | --- | --- | --- | --- |
| CC(=O)N[C@H]1CSCc2cc3cc(c2)CSC[C@H](NC(=O)[C@H](CCCNC(=N)N)N(C)C(=O)[C@H](C)NC(=O)[C@@H]2CCN2C(=O)[C@H](Cc2c[nH]c4ccccc24)NC(=O)[C@H](CO)NC1=O)C(=O)N[C@@H](CC(C)C)C(=O)N[C@@H](Cc1c[nH]cn1)C(=O)N[C@@H](CCC(N)=O)C(=O)N[C@@H](CC(=O)O)C(=O)N[C@@H](CC(C)C)C(=O)N[C@H](C(N)=O)CSC3 [Ac-(06-34-18) Aze3 NMeArg5] (Ac-CSW[Aze]A[NMeR]CLHQDLC-NH2; linker 1-7-13 via TBMB) | – | 70.2 | >10 | – | – | – | – | Observable in rat plasma, for days ([1]; Table 15): >10 days |
| CC(=O)N[C@H]1CSCc2cc3cc(c2)CSC[C@H](NC(=O)[C@H](CCCCNC(=N)N)NC(=O)[C@H](Cc2ccc(O)cc2)NC(=O)[C@@H]2CCCN2C(=O)[C@H](Cc2ccccc2)NC(=O)[C@H](CO)NC1=O)C(=O)N[C@@H](CC(C)C)C(=O)N[C@@H](Cc1c[nH]cn1)C(=O)N[C@@H](CCC(N)=O)C(=O)N[C@@H](CC(=O)O)C(=O)N[C@@H](CC(C)C)C(=O)N[C@H](C(N)=O)CSC3 [Ac-(06-34-18) Phe2 Tyr4 HomoArg5] (Ac-CSFPY[hArg]CLHQDLC-NH2; linker 1-7-13 via TBMB) | – | 16.2 | >10 | >10 | 12.2 | 2.1 | 12.2 | t1/2 (hrs) in rat plasma ([5]; Table 23, method #3): 12.2 h; rat plasma stability enhanced by a factor ([5]; compared to parent Phe2 Tyr4 peptide): 13 |
| CLWPARCLTIELC | 59 | – | – | – | – | – | – | – |
| CC(=O)N[C@H]1CSCc2cc3cc(c2)CSC[C@H](NC(=O)[C@H](CCCNC(=N)N)N(C)C(=O)[C@H](Cc2ccc(O)cc2)NC(=O)[C@@H]2CCCN2C(=O)[C@H](Cc2ccccc2)NC(=O)[C@H](CO)NC1=O)C(=O)N[C@@H](CC(C)C)C(=O)N[C@@H](Cc1c[nH]cn1)C(=O)N[C@@H](CCC(N)=O)C(=O)N[C@@H](CC(=O)O)C(=O)N[C@@H](CC(C)C)C(=O)N[C@H](C(N)=O)CSC3 [Ac-(06-34-18) Phe2 Tyr4 NMeArg5] (Ac-CSFPY[NMeR]CLHQDLC-NH2; linker 1-7-13 via TBMB) | – | 64.3 | >10 | >10 | > 20 | 1.7 | >20 | Ki [8]: 4 nM; half-life at 5 uM ([5]; rat, plasma, Table 23, method #3, read-out: t1/2 (hrs) in rat plasma (converted)): > 20 h |
| CC(=O)N[C@H]1CSCc2cc3cc(c2)CSC[C@H](NC(=O)[C@H](CCCCNC(=N)N)NC(=O)[C@H](C)NC(=O)[C@@H]2CCN2C(=O)[C@H](Cc2c[nH]c4ccccc24)NC(=O)[C@H](CO)NC1=O)C(=O)N[C@@H](CC(C)C)C(=O)N[C@@H](Cc1c[nH]cn1)C(=O)N[C@@H](CCC(N)=O)C(=O)N[C@@H](CC(=O)O)C(=O)N[C@@H](CC(C)C)C(=O)N[C@H](C(N)=O)CSC3 [Ac-(06-34-18) Aze3 HomoArg5] (Ac-CSW[Aze]A[hArg]CLHQDLC-NH2; linker 1-7-13 via TBMB) | – | 14.8 | >10 | – | – | – | – | Observable in rat plasma, for days ([1]; Table 15): >10 days |
| CC(=O)N[C@H]1CSCc2cc3cc(c2)CSC[C@H](NC(=O)[C@H](Cc2ccc(NC(=N)N)cc2)NC(=O)[C@H](Cc2ccc(O)cc2)NC(=O)[C@@H]2CCCN2C(=O)[C@H](Cc2ccccc2)NC(=O)[C@H](CO)NC1=O)C(=O)N[C@@H](CC(C)C)C(=O)N[C@@H](Cc1c[nH]cn1)C(=O)N[C@@H](CCC(N)=O)C(=O)N[C@@H](CC(=O)O)C(=O)N[C@@H](CC(C)C)C(=O)N[C@H](C(N)=O)CSC3 [Ac-(06-34-18) Phe2 Tyr4 4GuanPhe5] (Ac-CSFPY[Phe(4-guanidino)]CLHQDLC-NH2; linker 1-7-13 via TBMB) | – | 0.6 | >10 | >10 | 5 | 2.9 | 5.0 | – |
| CSWPYHCTHQDLC | – | – | – | – | – | – | – | RANK ([4]; Table 17, rank according to Kallikrein binding, positions 2-5 of 06-34-03 randomised): 39; FREQUENCY [9]: 1 |
